In the supplement of paper PMC12463676, “Small-molecule dissolution of stress granules by redox modulation benefits ALS models” (Nature Chemical Biology, 2025):

What was measured:
potassium arsenate = compound: O=[As]([O-])(O)O.[K+] [potassium arsenate]; experiment: thermal stability z-score vs DMSO; higher = more thermally stabilized by treatment; conditions: HeLa; arsenate concentration 1 mM
Method: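 Cellular thermal proteome profiling in HeLa cells treated with 1 mM arsenate for 1 h (DMSO pretreatment), heated to ten temperatures (37-66.3 °C). Soluble protein was quantified by TMT mass spectrometry relative to DMSO controls; the thermal stability score was transformed to a z-score; mean of n = 3 experiments.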

lipoamide = compound: NC(=O)CCCCC1CCSS1 [lipoamide]; experiment: as above; conditions: HeLa, lipoamide concentration 100 µM
Method: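 Cellular thermal proteome profiling in HeLa cells. Cells were treated with 100 µM lipoamide for 1 h, with or without 1 mM arsenate for a further 1 h, then heated to ten temperatures (37-66.3 °C), and soluble protein was quantified by TMT mass spectrometry relative to 0.1% DMSO controls. The thermal stability score (sum of log2 fold changes minus the abundance score) was transformed to a z-score; mean of n = 3 experiments.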

[1] = arsenate co-treatment: 1 mM arsenate 1 h
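Further: each temperature applied for 3 min, abundance score taken as mean log2 fold change at the two lowest temperatures, z-score obtained by mean subtraction and division by SD.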

Sequence of UniProt P11171 (P11171 whole entry): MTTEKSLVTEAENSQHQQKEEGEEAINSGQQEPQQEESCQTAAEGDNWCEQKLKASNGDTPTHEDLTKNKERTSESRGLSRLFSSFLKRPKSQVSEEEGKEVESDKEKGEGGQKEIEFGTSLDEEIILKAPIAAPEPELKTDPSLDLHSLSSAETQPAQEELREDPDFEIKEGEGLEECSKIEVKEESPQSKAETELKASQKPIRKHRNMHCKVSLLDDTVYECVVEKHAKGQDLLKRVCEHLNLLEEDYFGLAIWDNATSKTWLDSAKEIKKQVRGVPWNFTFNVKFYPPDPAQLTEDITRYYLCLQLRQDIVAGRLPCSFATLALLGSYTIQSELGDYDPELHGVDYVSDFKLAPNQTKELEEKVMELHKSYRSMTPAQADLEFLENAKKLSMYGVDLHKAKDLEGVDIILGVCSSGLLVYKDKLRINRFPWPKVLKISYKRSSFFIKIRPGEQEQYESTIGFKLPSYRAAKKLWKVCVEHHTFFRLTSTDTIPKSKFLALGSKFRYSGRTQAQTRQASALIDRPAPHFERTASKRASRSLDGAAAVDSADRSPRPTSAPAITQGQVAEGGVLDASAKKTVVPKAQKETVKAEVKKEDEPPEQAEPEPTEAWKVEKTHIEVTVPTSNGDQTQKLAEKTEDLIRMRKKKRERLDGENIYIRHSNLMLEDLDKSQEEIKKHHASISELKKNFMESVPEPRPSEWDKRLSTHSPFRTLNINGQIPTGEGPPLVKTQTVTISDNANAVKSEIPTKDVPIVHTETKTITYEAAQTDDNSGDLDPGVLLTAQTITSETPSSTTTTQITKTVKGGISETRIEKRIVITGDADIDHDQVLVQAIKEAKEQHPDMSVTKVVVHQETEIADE
Sequence of UniProt Q86X29 (Q86X29 whole entry): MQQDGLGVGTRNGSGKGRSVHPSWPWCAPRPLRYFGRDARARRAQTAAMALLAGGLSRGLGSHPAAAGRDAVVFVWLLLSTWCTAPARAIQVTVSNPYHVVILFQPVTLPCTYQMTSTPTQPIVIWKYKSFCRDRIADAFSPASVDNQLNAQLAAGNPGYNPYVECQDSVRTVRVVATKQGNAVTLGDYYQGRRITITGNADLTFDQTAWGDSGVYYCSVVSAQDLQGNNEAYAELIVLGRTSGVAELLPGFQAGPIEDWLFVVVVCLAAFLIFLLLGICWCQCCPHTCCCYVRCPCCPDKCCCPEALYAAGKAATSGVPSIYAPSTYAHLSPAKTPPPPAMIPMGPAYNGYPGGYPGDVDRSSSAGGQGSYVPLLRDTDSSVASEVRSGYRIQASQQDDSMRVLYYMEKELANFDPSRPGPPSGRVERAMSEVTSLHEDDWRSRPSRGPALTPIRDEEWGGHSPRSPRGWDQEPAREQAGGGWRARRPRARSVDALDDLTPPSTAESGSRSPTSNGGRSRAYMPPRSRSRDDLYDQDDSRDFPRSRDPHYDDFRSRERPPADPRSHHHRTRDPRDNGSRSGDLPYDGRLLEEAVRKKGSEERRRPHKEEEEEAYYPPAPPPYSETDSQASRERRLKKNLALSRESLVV
Sequence of UniProt P35251 (P35251 whole entry): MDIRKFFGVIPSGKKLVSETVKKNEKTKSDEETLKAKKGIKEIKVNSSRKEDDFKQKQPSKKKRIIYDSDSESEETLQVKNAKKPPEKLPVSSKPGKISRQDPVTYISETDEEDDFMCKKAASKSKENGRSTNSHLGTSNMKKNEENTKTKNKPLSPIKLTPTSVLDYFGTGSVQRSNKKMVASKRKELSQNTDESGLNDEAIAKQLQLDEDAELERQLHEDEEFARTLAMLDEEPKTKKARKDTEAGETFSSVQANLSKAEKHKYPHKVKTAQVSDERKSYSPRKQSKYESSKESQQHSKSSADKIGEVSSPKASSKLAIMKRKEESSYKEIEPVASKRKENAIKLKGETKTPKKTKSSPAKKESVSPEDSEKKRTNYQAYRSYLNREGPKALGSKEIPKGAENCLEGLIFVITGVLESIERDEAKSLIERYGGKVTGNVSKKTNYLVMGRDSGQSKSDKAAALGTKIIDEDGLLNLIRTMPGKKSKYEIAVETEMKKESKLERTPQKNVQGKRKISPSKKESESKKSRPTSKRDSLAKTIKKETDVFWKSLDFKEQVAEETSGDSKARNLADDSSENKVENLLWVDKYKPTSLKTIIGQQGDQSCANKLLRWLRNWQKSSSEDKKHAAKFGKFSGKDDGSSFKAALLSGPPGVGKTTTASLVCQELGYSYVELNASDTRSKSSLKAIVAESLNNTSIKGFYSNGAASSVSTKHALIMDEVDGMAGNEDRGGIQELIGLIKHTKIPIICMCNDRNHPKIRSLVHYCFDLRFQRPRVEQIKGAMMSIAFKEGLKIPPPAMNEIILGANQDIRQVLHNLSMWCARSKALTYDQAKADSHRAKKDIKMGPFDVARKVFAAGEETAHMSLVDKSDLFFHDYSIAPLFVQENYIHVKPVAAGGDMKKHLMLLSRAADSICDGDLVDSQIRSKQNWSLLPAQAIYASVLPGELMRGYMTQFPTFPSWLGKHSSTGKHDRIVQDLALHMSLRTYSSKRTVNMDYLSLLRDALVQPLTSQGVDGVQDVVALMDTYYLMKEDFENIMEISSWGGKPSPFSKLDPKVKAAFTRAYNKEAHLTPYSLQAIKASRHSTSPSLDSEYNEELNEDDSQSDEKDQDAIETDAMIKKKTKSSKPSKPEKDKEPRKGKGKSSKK
Sequence of UniProt Q8WU17 (Q8WU17 whole entry): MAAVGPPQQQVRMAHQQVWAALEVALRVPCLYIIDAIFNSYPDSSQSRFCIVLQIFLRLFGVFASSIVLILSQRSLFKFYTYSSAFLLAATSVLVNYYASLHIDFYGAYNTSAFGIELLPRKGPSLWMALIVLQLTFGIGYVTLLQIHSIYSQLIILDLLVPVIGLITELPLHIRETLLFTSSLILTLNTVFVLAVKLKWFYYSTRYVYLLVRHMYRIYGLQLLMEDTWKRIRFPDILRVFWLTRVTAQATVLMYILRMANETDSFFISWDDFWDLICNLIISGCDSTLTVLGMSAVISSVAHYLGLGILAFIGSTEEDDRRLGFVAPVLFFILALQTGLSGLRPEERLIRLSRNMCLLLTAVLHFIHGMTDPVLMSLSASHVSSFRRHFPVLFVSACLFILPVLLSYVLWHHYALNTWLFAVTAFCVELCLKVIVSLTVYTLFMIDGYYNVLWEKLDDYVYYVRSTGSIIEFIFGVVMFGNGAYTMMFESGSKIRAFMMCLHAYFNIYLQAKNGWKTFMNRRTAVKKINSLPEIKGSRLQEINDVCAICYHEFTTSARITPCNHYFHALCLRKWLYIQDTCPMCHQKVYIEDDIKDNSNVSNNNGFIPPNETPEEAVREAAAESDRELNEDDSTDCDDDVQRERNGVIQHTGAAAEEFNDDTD
Sequence of UniProt P16435 (P16435 whole entry): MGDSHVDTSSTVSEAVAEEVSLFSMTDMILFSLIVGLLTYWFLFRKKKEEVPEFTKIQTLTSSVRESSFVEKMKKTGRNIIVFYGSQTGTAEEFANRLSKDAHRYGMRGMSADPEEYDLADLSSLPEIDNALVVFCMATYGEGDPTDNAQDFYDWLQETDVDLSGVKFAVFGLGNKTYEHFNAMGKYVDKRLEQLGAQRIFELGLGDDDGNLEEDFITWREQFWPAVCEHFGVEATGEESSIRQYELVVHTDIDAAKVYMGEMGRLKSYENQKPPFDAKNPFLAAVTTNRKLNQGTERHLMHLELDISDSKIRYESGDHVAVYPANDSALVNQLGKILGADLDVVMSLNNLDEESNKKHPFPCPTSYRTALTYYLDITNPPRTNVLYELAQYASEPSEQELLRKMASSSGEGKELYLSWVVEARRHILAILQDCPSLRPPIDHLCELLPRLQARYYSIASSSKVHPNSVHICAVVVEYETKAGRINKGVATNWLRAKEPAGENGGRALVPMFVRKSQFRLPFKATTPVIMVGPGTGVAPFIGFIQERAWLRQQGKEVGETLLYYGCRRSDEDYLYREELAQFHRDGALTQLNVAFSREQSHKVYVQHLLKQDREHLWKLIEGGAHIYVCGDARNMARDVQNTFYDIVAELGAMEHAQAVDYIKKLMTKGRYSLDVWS
Sequence of UniProt A8MXV4 (A8MXV4 whole entry): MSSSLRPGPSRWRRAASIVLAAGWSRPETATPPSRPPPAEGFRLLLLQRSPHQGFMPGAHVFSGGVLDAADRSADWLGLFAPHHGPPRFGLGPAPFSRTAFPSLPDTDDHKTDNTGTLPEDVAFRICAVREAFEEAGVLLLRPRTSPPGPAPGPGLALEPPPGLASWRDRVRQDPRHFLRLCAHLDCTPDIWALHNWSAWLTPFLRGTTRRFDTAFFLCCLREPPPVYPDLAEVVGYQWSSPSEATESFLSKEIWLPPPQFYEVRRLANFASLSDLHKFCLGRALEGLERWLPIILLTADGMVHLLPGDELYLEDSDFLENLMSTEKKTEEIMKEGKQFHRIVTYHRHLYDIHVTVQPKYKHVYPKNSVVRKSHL
Sequence of UniProt P68036 (P68036 whole entry): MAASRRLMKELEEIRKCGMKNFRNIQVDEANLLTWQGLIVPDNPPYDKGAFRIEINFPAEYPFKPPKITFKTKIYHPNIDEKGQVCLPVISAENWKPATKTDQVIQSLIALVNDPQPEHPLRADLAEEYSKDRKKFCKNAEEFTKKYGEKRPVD
Sequence of UniProt Q7Z4H8 (Q7Z4H8 whole entry): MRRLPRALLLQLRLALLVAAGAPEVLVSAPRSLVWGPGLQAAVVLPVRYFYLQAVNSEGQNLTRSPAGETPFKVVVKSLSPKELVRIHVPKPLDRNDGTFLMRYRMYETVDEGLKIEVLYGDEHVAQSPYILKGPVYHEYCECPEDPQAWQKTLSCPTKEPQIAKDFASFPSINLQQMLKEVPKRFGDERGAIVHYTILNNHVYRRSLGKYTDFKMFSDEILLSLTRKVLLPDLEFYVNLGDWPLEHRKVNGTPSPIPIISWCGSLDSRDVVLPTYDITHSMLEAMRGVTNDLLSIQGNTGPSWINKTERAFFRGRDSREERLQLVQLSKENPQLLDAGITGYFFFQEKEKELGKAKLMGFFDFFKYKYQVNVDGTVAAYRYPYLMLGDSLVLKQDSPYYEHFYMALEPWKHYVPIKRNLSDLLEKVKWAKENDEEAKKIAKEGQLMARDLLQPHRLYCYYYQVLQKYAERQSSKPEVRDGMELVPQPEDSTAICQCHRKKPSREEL

Target	thermal stability z-score (potassium arsenate)	thermal stability z-score (lipoamide; [1])	thermal stability z-score (lipoamide; arsenate co-treatment: none)
TGS1 (UniProt Q96RS0)	1.17	-0.109	-0.175
FAM207A (UniProt Q9NSI2)	0.566	0.062	0.578
STK3 (UniProt Q13188)	0.098	-0.139	-0.0255
CD58 (UniProt P19256)	0.484	0.0858	0.705
TARS2 (UniProt Q9BW92)	0.922	0.183	0.625
HTATIP2 (UniProt Q9BUP3)	0.453	-0.914	-0.584
KDELC2 (UniProt Q7Z4H8)	0.334	-4.05	-2.72
CCDC93 (UniProt Q567U6)	0.0272	-0.728	-0.078
CKAP5 (UniProt Q14008)	0.286	-0.095	-0.0102
PHPT1 (UniProt Q9NRX4)	-1.95	0.922	0.553
TIMP1 (UniProt P01033)	-0.272	-0.407	-1.02
PPIP5K1 (UniProt Q6PFW1)	0.125	-0.0717	0.0968
PARP12 (UniProt Q9H0J9)	-0.282	0.0419	-0.00139
ACTR6 (UniProt Q9GZN1)	-0.13	0.151	-0.182
KLHL26 (UniProt Q53HC5)	-0.108	-0.138	-0.165
HAUS5 (UniProt O94927)	-0.0216	0.0805	0.111
MSH6 (UniProt P52701)	-0.142	0.0377	0.218
AGK (UniProt Q53H12)	0.573	0.541	0.38
MED12 (UniProt Q93074)	0.0377	-0.255	-0.248
SLC25A6 (UniProt P12236)	0.433	0.809	0.762
KPNA1 (UniProt P52294)	0.239	-0.0607	-0.0226
POR (UniProt P16435)	1.03	-0.215	-0.028
NUDT19 (UniProt A8MXV4)	-0.208	-0.133	0.126
TRIM38 (UniProt O00635)	-0.447	-0.0725	-0.0917
RFC1 (UniProt P35251)	-0.0625	-0.248	1.77
AP2B1 (UniProt P63010)	-0.216	-0.153	-0.596
ATAD3A (UniProt Q9NVI7)	0.401	-0.137	0.337
PTGFRN (UniProt Q9P2B2)	0.0412	0.216	0.0155

Target	thermal stability z-score (potassium arsenate)	thermal stability z-score (lipoamide; [1])	thermal stability z-score (lipoamide; arsenate co-treatment: none)
LSR (UniProt Q86X29)	-0.177	0.221	-0.243
METTL16 (UniProt Q86W50)	-0.0708	-0.248	-0.347
ATG2B (UniProt Q96BY7)	-0.0277	-0.149	0.0605
MYOF (UniProt Q9NZM1)	0.0213	-0.259	0.0805
ATP5J2 (UniProt P56134)	-0.0845	0.46	0.37
TMCO1 (UniProt Q9UM00)	-0.687	0.0581	0.305
SSFA2 (UniProt P28290)	-0.392	-0.0444	-0.00989
PPP1R21 (UniProt Q6ZMI0)	-0.839	-0.328	-0.0718
IPO4 (UniProt Q8TEX9)	0.0408	-0.55	-0.394
A0A087WV05|MYCBP	0.26	1.93	1.66
NEDD4L (UniProt Q96PU5)	0.0653	-0.314	-0.354
NDUFAF2 (UniProt Q8N183)	0.094	0.429	0.317
RPS6KA4 (UniProt O75676)	0.0157	-0.327	-0.0905
CARNMT1 (UniProt Q8N4J0)	0.59	-0.0735	-0.179
ARL13B (UniProt Q3SXY8)	-1.37	-0.415	-0.29
SNX16 (UniProt P57768)	-0.741	1.01	-0.515
SNUPN (UniProt O95149)	-0.43	-0.201	-1.48
MYO1B (UniProt O43795)	-2.1	0.967	0.54
UBE2L3 (UniProt P68036)	-0.555	0.00366	-0.189
ANKLE2 (UniProt Q86XL3)	0.76	-1.08	-0.166
EPB41 (UniProt P11171)	-0.0292	-0.424	-0.262
NARF (UniProt Q9UHQ1)	-0.0435	0.102	-0.133
CLCC1 (UniProt Q96S66)	0.408	-5.63	-5.9
RNF139 (UniProt Q8WU17)	0.947	-1.16	-0.12
PAFAH2 (UniProt Q99487)	-0.363	0.543	-0.499
IGHMBP2 (UniProt P38935)	-0.187	0.0798	0.0388
SF3A2 (UniProt Q15428)	-0.0497	-0.0843	-0.43
